Literature values in patent US20180280305A1 (Bayer HealthCare LLC, priority 2015, published 2018).

Conditions: pain conditions, non-prescription (OTC) setting

## COc1ccc2cc([C@H](C)C(=O)O)ccc2c1 [naproxen sodium]
  lowest effective dose: 220 mg
